From patent publication US8129527B2, “Analogs of dehydrophenylahistins and their therapeutic use” (Nereus Pharmacuticals, Inc., priority 2006, dated 2012) come the findings set out here.

The subject of this series is HT-29 cells. The experiment in a line: Additional cytotoxicity assays, resazurin (Table 3.1). The series is classed as cell-based, human. The following applies: for EC50: Homo sapiens. As to the method:
10× concentrated serial dilutions of the two compounds were prepared in appropriate culture medium for final concentrations ranging from 2.0×10^−5 M to 2.0×10^−10 M. Ten μl volumes of the 10× serial dilutions were added to the test wells in triplicate and the plates returned to the incubator for 48 hours.
Following 48 hours of drug exposure 10 μl of 0.2 mg/ml resazurin (obtained from Sigma-Aldrich Chemical Co.) in Mg^2+, Ca^2+ free PBS was added to each well and the plates were returned to the incubator for 3-4 hours. […] Resazurin dye without cells was used to determine the background, which was subtracted from the data for all experimental wells. The data were analyzed using Prism software (GraphPad Software).
Additional cytotoxicity assays were performed as described above under this example, using Resazurin fluorescence as an indicator of cell viability.

Setting [1] is: HT-29, Table 3.1, read-out: EC50 (M) Mean.

Read-outs that look alike come from different tables or passages of the source. Where only a bound is given, the exact number is not on record here.

By EC50 is commonly meant the concentration needed to bring the measured effect to its halfway point. As for `CCc1ccc(/C=c2\[nH]c(=O)/c(=C/c3nc[nH]c3C(C)(C)C)[nH]c2=O)s1` [Compound 2424, tBu-delta-PLH-5-Et-2-thionyl], under setting [1], the 50% effective concentration (EC50) amounted to 1.32e-07 M. Further, the “% cytotox Mean” value (Table 3.1) is recorded as 87%.

With `COc1cc(/C=c2\[nH]c(=O)/c(=C/c3nc[nH]c3C(C)(C)C)[nH]c2=O)ccc1F` [Compound 2432, tBu-delta-PLH-4-F-3-OMe], the half-maximal effective concentration (EC50) under setting [1] stood at 4.93e-07 M. Also, the “% cytotox Mean” value (Table 3.1) came to 85%.

As to `CC(C)(C)c1[nH]cnc1/C=c1\[nH]c(=O)/c(=C/c2cc(Br)cs2)[nH]c1=O` [Compound 2423, tBu-delta-PLH-4-Br-2-thionyl], the EC50 under setting [1] was found to be 1.71e-07 M. Further, the “% cytotox Mean” value (Table 3.1) was found to be 86%.

As to `CC(C)(C)c1[nH]cnc1/C=c1\[nH]c(=O)/c(=C/c2ccc(Cl)s2)[nH]c1=O` [Compound 2412, tBu-delta-PLH-5-Cl-2-thionyl], the concentration for a half-maximal effect (EC50) (HT-29, read-out: EC50 (M) Mean) amounted to 1.65e-07 M. Besides, the “% cytotox Mean” value (Table 3.1) was 85%.

In the case of `CC(C)(C)c1[nH]cnc1/C=c1\[nH]c(=O)/c(=C/c2ccc(C#N)cc2)[nH]c1=O` [Compound 2394, tBu-delta-PLH-p-CN], the half-maximal effective concentration (EC50) under setting [1] was greater than 2e-05 M. Moreover, under “Table 3.1”, the “% cytotox Mean” value is 14%.

For `CC(C)(C)c1[nH]cnc1/C=c1\[nH]c(=O)/c(=C/c2cccc(N)c2)[nH]c1=O` [Compound 2458, tBu-delta-PLH-m-NH2], the EC50 (HT-29, read-out: EC50 (M) Mean) turned out to be 3.1e-08 M. In addition, for the setting “Table 3.1”, the “% cytotox Mean” value is listed as 87%.

Consider `COc1cc(/C=c2\[nH]c(=O)/c(=C/c3nc[nH]c3C(C)(C)C)[nH]c2=O)cc(OC)c1` [Compound 2367, tBu-delta-3,5-diOMe], for which, under setting [1], the 50% effective concentration (EC50) came to 4.54e-08 M. In addition, where the note is “Table 3.1”, the “% cytotox Mean” value was 87%.

Turning to `COc1cccc(/C=c2\[nH]c(=O)/c(=C/c3nc[nH]c3C(C)(C)C)[nH]c2=O)c1N` [Compound 2455, tBu-delta-PLH-2-NH2-3-OMe], the EC50 under setting [1] amounted to 3.49e-07 M. Moreover, for the setting “Table 3.1”, the “% cytotox Mean” value turned out to be 87%.

For the compound `C=CC(C)(C)c1[nH]cnc1/C=c1\[nH]c(=O)/c(=C/c2ccccc2)[nH]c1=O` [Compound 2352, Dehydrophenylahistin], the EC50 under setting [1] is 4.26e-08 M. In addition, the “% cytotox Mean” value (Table 3.1) worked out at 86%.

With `CC(C)(C)c1[nH]cnc1/C=c1\[nH]c(=O)/c(=C/c2sccc2B(O)O)[nH]c1=O` [Compound 2459, tBu-delta-PLH-3-B(OH)2-2-thienyl], the EC50 under setting [1] was 2.53e-08 M. Moreover, under “Table 3.1”, the “% cytotox Mean” value worked out at 88%.

Take `CC(C)(C)c1[nH]cnc1/C=c1\[nH]c(=O)/c(=C/c2cccc3c2OCO3)[nH]c1=O` [Compound 2381, tBu-delta-PLH-2,3-methylendioxy]: the EC50 under setting [1] was 5.2e-07 M. In addition, the “% cytotox Mean” value (Table 3.1) came to 82%.

Turning to `C=CC(C)(C)c1[nH]cnc1/C=C1\NC(=O)[C@H](Cc2ccccc2)NC1=O` [Compound 2350, (−)-(S)-Halimide, (−)-(S)-Phenylahistin, (−)-(S)-PLH, reference compound], the concentration giving a half-maximal response (EC50) under setting [1] amounted to 3.94e-07 M. For the same compound, the “% cytotox Mean” value (Table 3.1) was found to be 87%.

For the compound `Cc1ccc(/C=c2\[nH]c(=O)/c(=C/c3nc[nH]c3C(C)(C)C)[nH]c2=O)s1` [Compound 2378, tBu-delta-PLH-5-Me-2-thienyl], the EC50 under setting [1] was 8.52e-08 M. The “% cytotox Mean” value (Table 3.1) amounted to 85%.

For `CC(C)(C)c1ccc(O)c(/C=c2\[nH]c(=O)/c(=C/c3nc[nH]c3C(C)(C)C)[nH]c2=O)c1` [Compound 2433, tBu-delta-PLH-2-OH-5-tBU], the EC50 under setting [1] was 8.53e-06 M. The “% cytotox Mean” value (Table 3.1) amounted to 80%.

In the case of `CSc1ccccc1/C=c1\[nH]c(=O)/c(=C/c2nc[nH]c2C(C)(C)C)[nH]c1=O` [Compound 2429, tBu-delta-PLH-2-(Methylthio)], the 50% effective concentration (EC50) under setting [1] is 2.86e-08 M. Further, the “% cytotox Mean” value (Table 3.1) is recorded as 87%.

`CC(C)(C)c1ccc(O)c(/C=c2\[nH]c(=O)/c(=C/c3ccccc3)[nH]c2=O)c1` [Compound 2422, tBu-delta-PLH-2-Hydroxybenzyl]: under setting [1], the EC50 was greater than 2e-05 M. Moreover, the “% cytotox Mean” value (Table 3.1) turned out to be 14%.

For the compound `CC(C)(C)c1[nH]cnc1/C=c1\[nH]c(=O)/c(=C/c2cc(Cl)cc(Cl)c2)[nH]c1=O` [Compound 2415, tBu-delta-PLH-3,5-diCl], the EC50 under setting [1] is 9.49e-08 M. Also, the “% cytotox Mean” value (Table 3.1) came out at 87%.

With `CC(C)(C)c1[nH]cnc1/C=c1\[nH]c(=O)/c(=C/c2ccccc2N)[nH]c1=O` [Compound 2457, tBu-delta-PLH-2-NH2], the half-maximal effective concentration (EC50) under setting [1] was determined as 4.32e-07 M. In addition, the “% cytotox Mean” value (Table 3.1) is reported as 86%.

Take `Cn1cccc1/C=c1\[nH]c(=O)/c(=C/c2nc[nH]c2C(C)(C)C)[nH]c1=O` [Compound 2414, tBu-delta-PLH-N-Me-2-pyrrole]: the concentration giving a half-maximal response (EC50) under setting [1] turned out to be 1.17e-07 M. The “% cytotox Mean” value (Table 3.1) came to 88%.

Consider `Cc1ccsc1/C=c1\[nH]c(=O)/c(=C/c2nc[nH]c2C(C)(C)C)[nH]c1=O` [Compound 2379, tBu-delta-PLH-3-Me-2-thienyl], for which the EC50 under setting [1] was 4.7e-08 M. Also, under “Table 3.1”, the “% cytotox Mean” value stood at 86%.

Take `CC(C)(C)c1[nH]cnc1/C=c1\[nH]c(=O)/c(=C/c2cccc(OC(F)(F)F)c2)[nH]c1=O` [Compound 2430, tBu-delta-PLH-m-OCF3]: the EC50 under setting [1] was 1.43e-08 M. Moreover, the “% cytotox Mean” value (Table 3.1) was 87%.

As for `C=CC(C)(C)c1[nH]cnc1/C=C1\NC(=O)C(Cc2ccccc2)N=C1OC` (racemic) [Compound 2355, D,L-monolactim-PLH], the EC50 under setting [1] is greater than 2e-05 M. The “% cytotox Mean” value (Table 3.1) amounted to 13%.

For `C=CC(C)(C)c1[nH]cnc1/C=C1\N=C(OC)C(Cc2ccccc2)N=C1OC` (racemic) [Compound 2354, D,L-bislactim-PLH], under setting [1], the concentration for a half-maximal effect (EC50) is greater than 2e-05 M. Further, the “% cytotox Mean” value (Table 3.1) stood at 4%.

For `CC(C)(C)c1[nH]cnc1/C=c1\[nH]c(=O)/c(=C/c2cc(I)ccc2F)[nH]c1=O` [Compound 2428, tBu-delta-PLH-2-F-5-I], the 50% effective concentration (EC50) under setting [1] was 4.17e-08 M. Further, the “% cytotox Mean” value (Table 3.1) amounted to 87%.

Turning to `COc1cc(/C=c2\[nH]c(=O)/c(=C/c3nc[nH]c3C(C)(C)C)[nH]c2=O)cc(OC)c1OC` [Compound 2362, tBu-ΔPLH-3,4,5-triOMe], the 50% effective concentration (EC50) (HT-29, read-out: EC50 (M) Mean) is 8.19e-06 M. Moreover, for the setting “Table 3.1”, the “% cytotox Mean” value stood at 78%.

Take `CCc1ccc(/C=c2\[nH]c(=O)/c(=C/c3nc[nH]c3C(C)(C)C)[nH]c2=O)o1` [Compound 2426, tBu-delta-PLH-5-Et-2-furyl]: the concentration for a half-maximal effect (EC50) under setting [1] was 2.42e-07 M. Moreover, the “% cytotox Mean” value (Table 3.1) stood at 86%.

As for `CC(C)(C)c1[nH]cnc1/C=c1\[nH]c(=O)/c(=C/c2ccc(Br)o2)[nH]c1=O` [Compound 2425, tBu-delta-PLH-5-Br-2-furyl], the EC50 under setting [1] turned out to be 3.05e-08 M. Besides, the “% cytotox Mean” value (Table 3.1) is 87%.

With `COc1cc(OC)c(/C=c2\[nH]c(=O)/c(=C/c3nc[nH]c3C(C)(C)C)[nH]c2=O)c(OC)c1` [Compound 2396, tBu-delta-PLH-2,4,6-TriOMe], under setting [1], the concentration for a half-maximal effect (EC50) is greater than 2e-05 M. Also, the “% cytotox Mean” value (Table 3.1) was found to be 2%.

As for `Cc1cccc(/C=c2\[nH]c(=O)/c(=C/c3nc[nH]c3C(C)(C)C)[nH]c2=O)c1C` [Compound 2439, tBu-delta-PLH-2,3-di-Me], the EC50 under setting [1] amounted to 2.96e-09 M. The “% cytotox Mean” value (Table 3.1) was found to be 87%.

For `COc1cccc2cc3c(=O)[nH]/c(=C\c4nc[nH]c4C(C)(C)C)c(=O)n3c12` [Compound 2374, tBu-delta-PLH-cyclized-3-MeO], the EC50 under setting [1] worked out at 6.92e-06 M. Also, the “% cytotox Mean” value (Table 3.1) is 58%.

`COc1ccc(/C=c2\[nH]c(=O)/c(=C/c3nc[nH]c3C(C)(C)C)[nH]c2=O)cc1O` [Compound 2408, tBu-delta-PLH-3-OH-4-OMe]: the concentration giving a half-maximal response (EC50) under setting [1] is 7.48e-06 M. Further, where the note is “Table 3.1”, the “% cytotox Mean” value is given as 66%.

As to `Cc1ccc(C)c(/C=c2\[nH]c(=O)/c(=C/c3nc[nH]c3C(C)(C)C)[nH]c2=O)c1` [Compound 2442, tBu-delta-PLH-2,5-diMe], under setting [1], the EC50 was determined as 8.82e-08 M. Further, for the setting “Table 3.1”, the “% cytotox Mean” value came out at 87%.

Regarding `Cc1ccc(F)c(/C=c2\[nH]c(=O)/c(=C/c3nc[nH]c3C(C)(C)C)[nH]c2=O)c1` [Compound 2436, tBu-delta-PLH-2-F-5-Me], the EC50 under setting [1] turned out to be 2.5e-08 M. In addition, for the setting “Table 3.1”, the “% cytotox Mean” value was found to be 86%.

As for `COc1ccc(/C=c2\[nH]c(=O)/c(=C/c3nc[nH]c3C(C)(C)C)[nH]c2=O)c(O)c1` [Compound 2409, tBu-delta-PLH-2-OH-4-OMe], the EC50 under setting [1] is greater than 2e-05 M. Also, the “% cytotox Mean” value (Table 3.1) stood at 8%.

Turning to `COc1cccc(/C=c2\[nH]c(=O)/c(=C/c3nc[nH]c3C(C)(C)C)[nH]c2=O)c1O` [Compound 2373, tBu-delta-PLH-2-OH-3-OMe (o-vanillin)], the 50% effective concentration (EC50) under setting [1] was determined as 5.36e-06 M. Further, the “% cytotox Mean” value (Table 3.1) amounted to 79%.

`COc1ccc(/C=c2\[nH]c(=O)/c(=C/c3nc[nH]c3C(C)(C)C)[nH]c2=O)c(OC)c1OC` [Compound 2368, tBu-delta-PLH-2,3,4-triOMe]: the concentration for a half-maximal effect (EC50) under setting [1] stood at 4.8e-06 M. Further, where the note is “Table 3.1”, the “% cytotox Mean” value is reported as 78%.

With `CC(C)(C)c1[nH]cnc1/C=c1\[nH]c(=O)/c(=C/c2ccccc2)[nH]c1=O` [Compound 2358, t-butyl-delta-PLH], the EC50 (HT-29, read-out: EC50 (M) Mean) is 1.49e-08 M. The “% cytotox Mean” value (Table 3.1) is reported as 86%.

`CC(C)(C)c1[nH]cnc1/C=c1\[nH]c(=O)/c(=C/c2cc([N+](=O)[O-])ccc2Cl)[nH]c1=O` [Compound 2371, tBu-delta-PLH-2-Cl-5-NO2]: under setting [1], the concentration for a half-maximal effect (EC50) is 5.34e-08 M. Also, the “% cytotox Mean” value (Table 3.1) was found to be 86%.

With `Cc1cccc(/C=c2\[nH]c(=O)/c(=C/c3nc[nH]c3C(C)(C)C)[nH]c2=O)n1` [Compound 2384, tBu-delta-PLH-3-Me-2-pyridyl], the 50% effective concentration (EC50) under setting [1] was greater than 2e-05 M. Also, for the setting “Table 3.1”, the “% cytotox Mean” value is reported as 37%.

Take `CC(C)(C)c1[nH]cnc1/C=c1\[nH]c(=O)/c(=C/c2cc(Cl)ccc2[N+](=O)[O-])[nH]c1=O` [Compound 2403, tBu-delta-PLH-2-NO2-5-Cl]: the concentration giving a half-maximal response (EC50) under setting [1] came to 9.97e-08 M. The “% cytotox Mean” value (Table 3.1) is recorded as 86%.
